{"source": "patent US5459256A", "about": "“Lipophilic, aminohydrolase-activated prodrugs” (priority 1991, dated 1995)", "key": {"[1]": {"target": "T1, adenosine deaminase (adenosine aminohydrolase, EC 3.5.4.4) (Bos taurus, UniProt P56658)", "T1 sequence (P56658 1-363)": "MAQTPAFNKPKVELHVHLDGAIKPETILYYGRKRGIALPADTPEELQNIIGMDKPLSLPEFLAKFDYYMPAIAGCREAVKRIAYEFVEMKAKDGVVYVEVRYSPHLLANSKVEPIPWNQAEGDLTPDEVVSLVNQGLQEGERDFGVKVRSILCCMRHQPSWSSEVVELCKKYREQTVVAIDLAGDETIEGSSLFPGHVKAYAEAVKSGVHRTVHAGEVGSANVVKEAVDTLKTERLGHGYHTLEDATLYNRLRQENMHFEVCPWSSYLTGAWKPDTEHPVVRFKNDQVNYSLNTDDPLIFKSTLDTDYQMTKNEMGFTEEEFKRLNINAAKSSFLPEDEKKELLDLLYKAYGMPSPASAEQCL", "assay": "Enzymatic deamination by adenosine deaminase (HPLC)", "experimental": "FIG. 1. Deamination of dideoxyadenosine analogues by adenosine deaminase. Hydrolysis kinetics and 2'-F-dd-ara-I formation during the incubation of 50 μM N^6 -CH3 -2'-F-dd-ara-A (1f) with 0.7 units/mL of adenosine deaminase at 37° C. A unit of adenosine deaminase is the amount of enzyme which hydrolyzes a standard substrate (e.g., adenosine) at the rate of 1.0 μmole/min at 25° C. and pH 7.5. […] Insert: Adenosine deaminase hydrolysis kinetics for 50 μM ddA and 2'-F-dd-ara-A. The hydrolysis curve for ddA has been extrapolated from kinetics obtained with 0.07 units/mL of adenosine deaminase under identical conditions.\nA 50 μl aliquot of a 10 mg/ml suspension of adenosine deaminase (adenosine aminohydrolase, EC 3.5.4.4) from calf intestinal mucosa was centrifuged at 600×g for 3 min. The residue remaining after removal of the (NH4)2 SO4 supernatant was dissolved in 0.5 ml pH 7.4 tris(hydroxymethyl)-aminomethane (Tris) buffer to give an enzyme solution of 1 mg/ml (274 units/ml). […] A pH 7.4 buffer was prepared by adjusting 0.01M Tris to pH 7.4 with 0.5N HCl, The 1.0 HCl , HPLC-grade acetonitrile, monobasic potassium phosphate, sodium hydroxide and ultrapure Tris were all commercially available and were used without further purification.\nEnzymatic Deamination of Adenosine Analogues. […] A 50 μL aliquot of substrate solution was diluted with 0.95 ml 0.01M Tris buffer in a 1.5-mL Eppendorf tube and equilibrated at 37° C. in a Dubnoff metabolic shaking incubator. Reaction was initiated by addition of 2.5 μL of adenosine deaminase solution (0.7 unit). At specified time intervals, a 50 μL aliquot of the reaction mixture was withdrawn and quenched by mixing with 0.45 mL cold 2 μM 2'-deoxycoformycin. This diluted sample was ultrafiltered to remove enzyme in a Centrifree Micropartition unit by centrifugation at 600×g at 4° C. in a high speed refrigerated centrifuge. The decrease in substrate concentration was monitored by HPLC analysis of the resultant ultrafiltrate (see below). The ability of 2'-deoxycoformycin to inhibit deamination under the above conditions was evaluated by adding 2 μL of 1.0 mM inhibitor to diluted substrate solutions at the time of equilibration. Reaction, sampling and analysis were carried out as above. […] Initial hydrolysis rates for each substrate concentration were measured through linear least-squares curve fitting of the concentration versus time data for reaction of the first 10% of substrate. KM and vmax values for each substrate were then determined from a graphical lineweaver-Burke plot of these initial rates (FIG. 1).\nHPLC Analysis of Dideoxypurine Nucleosides.\nConcentrations of dideoxynucleosides were measured by the HPLC analysis of 100 μL aliquots of ultrafiltered samples. A 4.6×250 mm 5-μm Ultrasphere-ODS column, protected by a Waters guard column packed with 37-50 μm Vydac 201SC, was eluted with 10-20% CH3 CN in 0.01M pH 7.0 phosphate buffer at a flow rate of 1.0 mL/min. Dideoxynucleosides and deamination products were detected at the appropriate wavelength of maximum absorption with a Gilson 116 variable wavelength detector. Peak identity was determined from coincidence of retention times with standards and by comparison of on-the-fly UV spectra obtained with a Perkin-Elmer LC-235 diode array detector. Peak areas and peak heights were measured simultaneously on a Spectra-Physics SP4200 computing integrator."}, "CD4^+ ATH8 cells": {"tested_on": "CD4^+ ATH8 cells", "assay": "Toxicity on ATH8 target cells (% toxicity, dye exclusion)", "assay_type": "cell-based", "conditions": "human", "experimental": "(§1) HIV Cytopathic Effect Inhibition Assay.\n(§2) The HIV cytopathic effect inhibition assay was performed as previously described. […] On day 8 in culture, the viable cells were counted by using the dye exclusion method. All compounds, including inactives, were evaluated a minimum of two times in separate experiments. Data reported in Table II are from representative tests. The % protection against the virus was determined by the following formula: 100 times [(the number of viable cells exposed to HIV-1 and cultured in the presence of the compound minus the number of viable cells exposed to HIV-1 and cultured in the absence of compound) divided by (the number of viable cells cultured alone minus the number of viable cells exposed to HIV-1 and cultured in the absence of the compound)]. The % toxicity of a compound on the target cells was determined by the following formula: 100 times [1 minus (the number of total viable cells cultured in the presence of the compound divided by the number of total viable cells cultured alone)]. Calculated percentages equal to or less than zero are expressed as 0%."}, "[2]": {"assay": "Toxicity on ATH8 target cells (% toxicity, dye exclusion)", "assay_type": "cell-based", "conditions": "human, ath8 cells, % Toxicity", "experimental": "as §1, §2"}}}
{"smiles": "CNc1ncnc2c1ncn2[C@@H]1O[C@H](CO)C[C@@H]1F", "note": "[Compound 1f, N^6 -Methyl-9-(2'3'-dideoxy-2'-fluoro-β-D-arabinofuranosyl)adenine]", "values": [{"measurement": "Measured Relative Rate", "setting": "[1]; 50 μM substrate, pH 7.4 and 37° C., ddA = 100", "value": 0.04}, {"measurement": "deamination product / product formation (in words)", "setting": "[1]; 0.7 U/mL ADA, 37° C.", "value": "the corresponding inosine analogue, 1b, was the product formed"}, {"measurement": "half-life at 50 µM", "setting": "[1]; bovine, adenosine deaminase", "value": 3, "unit": "h"}, {"measurement": "vmax", "setting": "[1]; pH 7.4 and 37° C.", "value": "5.5 × 10^-4 μmol/min/U"}, {"measurement": "hydrolysis rate, times slower than 1a", "setting": "[1]; vs 1a, 0.7 U/mL ADA, 37° C.", "value": 135, "unit": "times slower"}, {"measurement": "binding to ADA, times tighter than 1i", "setting": "[1]; vs 1i", "value": "about 70 times tighter"}, {"measurement": "vmax, times slower than 1i", "setting": "[1]; vs 1i", "value": 50, "unit": "times slower"}, {"measurement": "hydrolysis by ADA, times slower than ddA", "setting": "[1]; vs ddA, 50 μM substrate", "value": "~2500", "unit": "times slower"}, {"measurement": "% Toxicity", "setting": "CD4^+ ATH8 cells; 11520 min", "value": 11, "unit": "%"}, {"measurement": "% Toxicity", "setting": "CD4^+ ATH8 cells; ath8 cells, 192 h, 5 µM", "value": 3, "unit": "%"}, {"measurement": "% Toxicity", "setting": "CD4^+ ATH8 cells; ath8 cells, 192 h, 10 µM", "value": 7, "unit": "%"}, {"measurement": "cytotoxicity at 192 h, 20 µM", "setting": "[2]", "value": 0, "unit": "%"}]}
